Literature values in US20020102309A1, “CONTROLLED RELEASE FORMULATION FOR ADMINISTRATION OF AN ANTI-INFLAMMATORY NAPHTHALENE DERIVATIVE” (priority 1999, published 2002).

Tested on: patients with osteoarthritis or rheumatoid arthritis

COc1ccc2cc(CCC(C)=O)ccc2c1 [nabumetone, 4-(6′-methoxy-2′-naphthyl)butan-2-20 one]
duodenal ulcer, gastric ulcer, and gastrointestinal bleeding, patients taking the drug (literature (Pisko et al. 1987 and others)): less than 1 % of patients
ulcers occurred, treated patients (patients with osteoarthritis or rheumatoid arthritis, Dahl 1993): 0.03 % of patients
